These results are taken from patent US20230085307A1, “PYRIDAZINONE COMPOUND AND HERBICIDE” (NISSAN CHEMICAL CORPORATION, priority 2019, published 2023).

One assay has as its system late watergrass. Description: Test Example 1: herbicidal activity, application before weed generation under submerged conditions (Table 16, symbol A). It counts as in vivo, late watergrass (Echinochloa oryzicola). Conditions: amount of applied herbicide 320 g/ha. The method in brief: (§1)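 Alluvial soil was flooded to 4 cm depth, weed seeds were sown mixed and 2.5-leaf rice seedlings were transplanted. On sowing day, the compound's emulsion, diluted in water to a set dose, was applied to the water surface. Plants grew at 25–30 °C and were scored 0–5 after three weeks.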

Assay [1] concerns Japanese bulrush. Briefly: Test Example 1: herbicidal activity, application before weed generation under submerged conditions (Table 16, symbol B). It counts as in vivo, Japanese bulrush (Schoenoplectus juncoides). The following applies: amount of applied herbicide 320 g/ha. The method in brief:
as §1

The test system of assay [2] is Japanese bulrush. Description: Test Example 2: herbicidal activity, application during weed generation under submerged conditions (Table 17, symbol B). It counts as in vivo, Japanese bulrush (Schoenoplectus juncoides). Conditions: AAH 320 g/ha; application during weed generation, submerged conditions. The method in brief:
(§2)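 3-wk visual-criteria score after one water-surface dose. Emulsion formulation, water-diluted to set rate; applied at 1–2 leaf stage; alluvial soil, 4 cm standing water; seeds co-sown; greenhouse 25–30° C.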

Another assay has as its system oval-leafed pondweed. Description: Test Example 2: herbicidal activity, application during weed generation under submerged conditions (Table 17, symbol C). It counts as in vivo, oval-leafed pondweed (Monochoria vaginalis). Conditions: AAH 320 g/ha; application during weed generation, submerged conditions. The method in brief: as §2
The test system of another assay is southern crabgrass. Description: Test Example 4: herbicidal effect by soil treatment (Table 19, symbol F). The following applies: amount of applied herbicide 320 g/ha. It counts as in vivo, southern crabgrass (Digitaria ciliaris). The method in brief: (§3)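 Soil-surface application: an emulsion agent diluted with water to the predetermined dose is sprayed uniformly over seeds lying under roughly 1.5 cm of sterilized diluvial soil. Boxes stay in a greenhouse at 25° C. to 30° C. Three weeks later, each species is graded on previously defined criteria.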

In assay [3] the test system is barnyard grass. Briefly: Test Example 4: herbicidal effect by soil treatment (Table 19, symbol H). The following applies: amount of applied herbicide 320 g/ha. It counts as in vivo, barnyard grass (Echinochloa crus-galli). The procedure, abridged: as §3
Assay [4] deals with wild oat. Briefly: Test Example 4: herbicidal effect by soil treatment (Table 19, symbol I). It counts as in vivo, wild oat (Avena fatua). The following applies: amount of applied herbicide 320 g/ha. The method in brief: as §3
For a further assay, the system named is Italian ryegrass. Description: Test Example 4: herbicidal effect by soil treatment (Table 19, symbol K). It counts as in vivo, Italian ryegrass (Lolium multiflorum). Conditions: amount of applied herbicide 320 g/ha. The method in brief:
as §3

The subject of assay [5] is redroot pigweed. Briefly: Test Example 4: herbicidal effect by soil treatment (Table 19, symbol N). It counts as in vivo, redroot pigweed (Amaranthus retroflexus). Conditions: amount of applied herbicide 320 g/ha. The method in brief:
as §3

A further assay relates to green foxtail. Briefly: Test Example 5: herbicidal effect by foliage application, plastic box (Table 20, symbol G). It counts as in vivo, green foxtail (Setaria viridis). The following applies: 320 g/ha. The method in brief:
(§4)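 Sow seeds spot-wise in sterilized diluvial soil; cover with ~1.5 cm soil. Grow 14 days in greenhouse, 25° C. to 30° C. Spray foliage with emulsion diluted to predetermined amount. Rate effect after 3 weeks.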

In assay [6] the test system is barnyard grass. Description: Test Example 5: herbicidal effect by foliage application, plastic box (Table 20, symbol H). It counts as in vivo, barnyard grass (Echinochloa crus-galli). Conditions: 320 g/ha. The procedure, abridged: as §4
Assay [7] has as its system wild oat. Description: Test Example 5: herbicidal effect by foliage application, plastic box (Table 20, symbol I). It counts as in vivo, wild oat (Avena fatua). The following applies: 320 g/ha. The procedure, abridged:
as §4

Assay [8] deals with blackgrass. Description: Test Example 5: herbicidal effect by foliage application, plastic box (Table 20, symbol J). It counts as in vivo, blackgrass (Alopecurus myosuroides). Conditions: foliage application, 320 g/ha, three weeks after application. The method in brief:
as §4

The test system of assay [9] is redroot pigweed. Briefly: Test Example 5: herbicidal effect by foliage application, plastic box (Table 20, symbol N). It counts as in vivo, redroot pigweed (Amaranthus retroflexus). Conditions: 320 g/ha. The method in brief:
as §4

For the next assay, the system named is chickweed. Briefly: Test Example 5: herbicidal effect by foliage application, plastic box (Table 20, symbol P). It counts as in vivo, common chickweed (Stellaria media). Conditions: 320 g/ha. The method in brief:
as §4

Assay [10] relates to blackgrass. Description: Test Example 4: herbicidal effect by soil treatment (Table 19, symbol J). The following applies: amount of applied herbicide 320 g/ha. It counts as in vivo, blackgrass (Alopecurus myosuroides). The method in brief:
as §3

Setting [11] is: foliage application, three weeks after application.
The mark [12] stands for this setting: foliage application after 14-day growth, evaluated three weeks after application.

For `CCCC(=O)Oc1c(C)nn(C)c(=O)c1-c1c(-c2ccc(F)cc2OCC)sc2cc(Cl)ccc12` [3-046], the “Herbicidal effect, A: late watergrass” value in the assay with late watergrass is 4 (Herbicidal rate of 70% or more and less than 90%). For the same compound, the “Herbicidal effect, B: Japanese bulrush” value in the assay on Japanese bulrush [1] was 0 (Herbicidal rate of 5% or less (almost no effect)). For the same compound, the “herbicidal effect rating, B: Japanese bulrush” value (shortened to “herbicidal effect rating, B”) with Japanese bulrush [2] was 2 (Herbicidal rate of 20% or more and less than 40%). In the assay on oval-leafed pondweed, the “herbicidal effect rating, C: oval-leafed pondweed” value (from here on “herbicidal effect rating, C”) is 1 (Herbicidal rate of 5% or more and less than 20%). In the assay on southern crabgrass, the “F: southern crabgrass, herbicidal effect grade” value is 0 (Herbicidal rate of 5% or less (almost no effect)). Besides, the “H: barnyard grass, herbicidal effect grade” value is reported as 0 (Herbicidal rate of 5% or less (almost no effect)) in the assay on barnyard grass [3] and 5 (Herbicidal rate of 90% or more (almost completely withered)) with barnyard grass [6] (setting [11]). The “I: wild oat, herbicidal effect grade” value with wild oat [4] is 0 (Herbicidal rate of 5% or less (almost no effect)); with wild oat [7] (setting [11]), 5 (Herbicidal rate of 90% or more (almost completely withered)). In addition, the “K: Italian ryegrass, herbicidal effect grade” value in the assay on Italian ryegrass was 0 (Herbicidal rate of 5% or less (almost no effect)). Further, the “N: redroot pigweed, herbicidal effect grade” value in the assay on redroot pigweed [5] is 5 (Herbicidal rate of 90% or more (almost completely withered)); with redroot pigweed [9] (setting [11]), 4 (Herbicidal rate of 70% or more and less than 90%). The “G: green foxtail, herbicidal effect grade” value with green foxtail (setting [11]) is 5 (Herbicidal rate of 90% or more (almost completely withered)). For the same compound, the “J: blackgrass, herbicidal effect grade” value in the assay on blackgrass [8] was 4 (Herbicidal rate of 70% or more and less than 90%). The “P: chickweed, herbicidal effect grade” value in the assay on chickweed (setting [11]) is given as 5 (Herbicidal rate of 90% or more (almost completely withered)).

On to `CCCC(=O)Oc1c(C)nn(C)c(=O)c1-c1c(-c2ccc(C#N)cc2)sc2c(F)cccc12` [4-053], for which, in the assay on late watergrass, the “Herbicidal effect, A: late watergrass” value is 5 (Herbicidal rate of 90% or more (almost completely withered)). Moreover, the “Herbicidal effect, B: Japanese bulrush” value in the assay with Japanese bulrush [1] is 3 (Herbicidal rate of 40% or more and less than 70%). Moreover, the “herbicidal effect rating, B” value with Japanese bulrush [2] is 2 (Herbicidal rate of 20% or more and less than 40%). In addition, in the assay with southern crabgrass, the “Herbicidal effect by soil treatment, F: southern crabgrass” value is listed as 0 (Herbicidal rate of 5% or less (almost no effect)). Moreover, the “Herbicidal effect by soil treatment, H: barnyard grass” value with barnyard grass [3] is on record as 0 (Herbicidal rate of 5% or less (almost no effect)). For the same compound, the “Herbicidal effect by soil treatment, I: wild oat” value with wild oat [4] was 0 (Herbicidal rate of 5% or less (almost no effect)). Moreover, in the assay with blackgrass [10], the “Herbicidal effect by soil treatment, J: blackgrass” value is 0 (Herbicidal rate of 5% or less (almost no effect)). Besides, the “Herbicidal effect by soil treatment, K: Italian ryegrass” value in the assay with Italian ryegrass is 4 (Herbicidal rate of 70% or more and less than 90%). In the assay on redroot pigweed [5], the “Herbicidal effect by soil treatment, N: redroot pigweed” value is 5 (Herbicidal rate of 90% or more (almost completely withered)). Further, the “herbicidal effect on G: green foxtail (evaluation grade 0-5)” value in the assay on green foxtail (setting [12]) is reported as 0 (Herbicidal rate of 5% or less (almost no effect)). The “herbicidal effect on H: barnyard grass (evaluation grade 0-5)” value in the assay on barnyard grass [6] (setting [12]) was 2 (Herbicidal rate of 20% or more and less than 40%). The “herbicidal effect on I: wild oat (evaluation grade 0-5)” value in the assay with wild oat [7] (setting [12]) is 2 (Herbicidal rate of 20% or more and less than 40%). For the same compound, the “herbicidal effect on N: redroot pigweed (evaluation grade 0-5)” value with redroot pigweed [9] (setting [12]) is 5 (Herbicidal rate of 90% or more (almost completely withered)). In addition, in the assay on chickweed (setting [12]), the “herbicidal effect on P: chickweed (evaluation grade 0-5)” value was 5 (Herbicidal rate of 90% or more (almost completely withered)).

For the compound `CCCC(=O)Oc1c(C)nn(C)c(=O)c1-c1c(-c2ccc(F)cc2)sc2cc(C)c(C)cc12` [5-089], in the assay on late watergrass, the “Herbicidal effect, A: late watergrass” value was 3 (Herbicidal rate of 40% or more and less than 70%). For the same compound, the “Herbicidal effect, B: Japanese bulrush” value with Japanese bulrush [1] is recorded as 0 (Herbicidal rate of 5% or less (almost no effect)). Moreover, the “herbicidal effect rating, B” value with Japanese bulrush [2] is given as 0 (Herbicidal rate of 5% or less (almost no effect)). Moreover, the “herbicidal effect rating, C” value in the assay with oval-leafed pondweed is listed as 0 (Herbicidal rate of 5% or less (almost no effect)). Further, the “F: southern crabgrass, herbicidal effect grade” value in the assay on southern crabgrass is given as 0 (Herbicidal rate of 5% or less (almost no effect)). The “H: barnyard grass, herbicidal effect grade” value in the assay on barnyard grass [3] was 0 (Herbicidal rate of 5% or less (almost no effect)). In addition, the “I: wild oat, herbicidal effect grade” value in the assay with wild oat [4] is recorded as 0 (Herbicidal rate of 5% or less (almost no effect)). In the assay with blackgrass [10], the “J: blackgrass, herbicidal effect grade” value was 0 (Herbicidal rate of 5% or less (almost no effect)). Also, the “K: Italian ryegrass, herbicidal effect grade” value with Italian ryegrass is 0 (Herbicidal rate of 5% or less (almost no effect)). The “N: redroot pigweed, herbicidal effect grade” value in the assay with redroot pigweed [5] was 0 (Herbicidal rate of 5% or less (almost no effect)). Further, the “herbicidal effect on green foxtail (G)” value in the assay on green foxtail (setting [11]) is 0 (Herbicidal rate of 5% or less (almost no effect)). For the same compound, in the assay on barnyard grass [6] (setting [11]), the “herbicidal effect on barnyard grass (H)” value was 0 (Herbicidal rate of 5% or less (almost no effect)). Further, the “herbicidal effect on wild oat (I)” value with wild oat [7] (setting [11]) was 0 (Herbicidal rate of 5% or less (almost no effect)). The “herbicidal effect on blackgrass (J)” value with blackgrass [8] is 0 (Herbicidal rate of 5% or less (almost no effect)).

Take `CCOc1ccccc1-c1sc2cc(C)c(C)cc2c1-c1c(O)c(C)nn(C)c1=O` [5-094]: the “Herbicidal effect, A: late watergrass” value in the assay with late watergrass was 4 (Herbicidal rate of 70% or more and less than 90%). Also, in the assay on Japanese bulrush [1], the “Herbicidal effect, B: Japanese bulrush” value is 4 (Herbicidal rate of 70% or more and less than 90%). In addition, the “herbicidal effect rating, B” value in the assay with Japanese bulrush [2] was 3 (Herbicidal rate of 40% or more and less than 70%). In the assay with oval-leafed pondweed, the “herbicidal effect rating, C” value was 3 (Herbicidal rate of 40% or more and less than 70%). For the same compound, the “F: southern crabgrass, herbicidal effect grade” value with southern crabgrass was 4 (Herbicidal rate of 70% or more and less than 90%). Besides, in the assay on barnyard grass [3], the “H: barnyard grass, herbicidal effect grade” value is 1 (Herbicidal rate of 5% or more and less than 20%). Moreover, the “I: wild oat, herbicidal effect grade” value in the assay on wild oat [4] is on record as 0 (Herbicidal rate of 5% or less (almost no effect)). In addition, in the assay with blackgrass [10], the “J: blackgrass, herbicidal effect grade” value was 1 (Herbicidal rate of 5% or more and less than 20%). Besides, the “K: Italian ryegrass, herbicidal effect grade” value in the assay with Italian ryegrass was 3 (Herbicidal rate of 40% or more and less than 70%). In addition, in the assay with redroot pigweed [5], the “N: redroot pigweed, herbicidal effect grade” value is 3 (Herbicidal rate of 40% or more and less than 70%). In the assay with green foxtail (setting [11]), the “herbicidal effect on green foxtail (G)” value is listed as 5 (Herbicidal rate of 90% or more (almost completely withered)). Further, the “herbicidal effect on barnyard grass (H)” value in the assay on barnyard grass [6] (setting [11]) was 5 (Herbicidal rate of 90% or more (almost completely withered)). For the same compound, the “herbicidal effect on wild oat (I)” value with wild oat [7] (setting [11]) was 1 (Herbicidal rate of 5% or more and less than 20%). Also, in the assay on blackgrass [8], the “herbicidal effect on blackgrass (J)” value is 4 (Herbicidal rate of 70% or more and less than 90%).
